In patent EP2551257A1, “Co-crystals of agomelatine with co-crystal-formers” (Laboratorios del. Dr. Esteve, S.A., priority 2011, dated 2013):

Legend:
[1] = Intrinsic Dissolution Rate (IDR) test, USP apparatus 2 (paddles); assay type: physicochemical; details: for Ratio: IDR of co-crystal relative to agomelatine; for IDR: 37°C, 100 rpm, 2 hours, calculated from slope of straight line
Text: The aim of this study was to measure intrinsic dissolution rate (IDR) of some crystalline forms of the present invention in order to compare them with the IDR of the agomelatine. Intrinsic dissolution rate is defined as the dissolution rate of pure substance under the condition of constant surface area.
Figures 20 and 21 show the results of intrinsic dissolution rate performed with co-crystals obtained in examples 4 and 5. The IDR behaviour of agomelatine and the co-crystal of agomelatine - gentisic acid (1:1), agomelatine - citric acid (1:1) from the present invention was tested in USP apparatus 2 (paddles) at 37°C and 100 rpm with 2 hours in a solution of 0,1 N HCl (figure 20) and 2 hours in a buffer solution at pH 6.8 (figure 21). The intrinsic dissolution rate was calculated from the slope of the straight line obtained.

[2] = cited from earlier work
[3] = system: α, β adrenergic, histaminergic, cholinergic, dopaminergic and benzodiazepine receptors; details: cited from earlier work
[4] = system: monoamine uptake; details: cited from earlier work

Compound | Ratio ([1]; Media Buffer pH 6.8) | Ratio ([1]; Media HCl 0.1M) | IDR ([1]; Media Buffer pH 6.8) | IDR ([1]; Media HCl 0.1M) | solubility in various organic solvents ([2]; 96% ethanol, methanol, methylene chloride, freely soluble) | solubility in purified water ([2]; purified water, practically insoluble) | affinity [3] | effect on monoamine uptake [4]
COc1ccc2cccc(CCNC(C)=O)c2c1 [agomelatine - gentisic acid (1:1) co-crystal] | 1.70 | 1.28 | 0.0453 mg/cm^2·s | 0.0447 mg/cm^2·s |  |  |  | 
COc1ccc2cccc(CCNC(C)=O)c2c1 [agomelatine, N-[2-(7-methoxynaphthalen-1-yl)ethyl]acetamide] |  |  | 0.0267 mg/cm^2·s | 0.0349 mg/cm^2·s | > 100 mg/mL | < 0,1 mg/ml | no affinity | no effect
COc1ccc2cccc(CCNC(C)=O)c2c1 [agomelatine-citric acid (1:1) co-crystal] | 1.76 | 1.92 | 0.0470 mg/cm^2·s | 0.0670 mg/cm^2·s |  |  |  | 
